# Active and inactive are the calls of the source.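 How the source made its calls: active means half-maximal concentration for the rise in caspase light signal at or below ten times the top tested dose; inconclusive means flat fit between 30% and 70% activity, or unreliable curve fit; inactive means the rest.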
# Tested on: MEF A1-2A-BIM cells, caspase 3/7 luminescence, 3 h
# Assay: inducers of caspase signal in A1-dependent MEFs – cell-based, luminescence, retest, A1 inhibitor project, dose response (AID 2765)
row,EC50,Compound
1,> 35 µM (inactive),CCc1cc(=O)oc2cc(C)cc(OCC(=O)NC3CCN(Cc4ccccc4)CC3)c12
2,7.95 µM,O=C(NCCc1ccccc1)C(c1cccs1)N(C(=O)CCl)c1ccc(Cl)cc1 (stereo not drawn)
3,> 35 µM (inactive),CC(C)C(=O)Nc1cc(S(=O)(=O)N2CCOCC2)ccc1N1CCCCC1
4,> 35 µM (inactive),CCS(=O)(=O)Nc1ccc(Cc2ccncc2)cc1
5,> 35 µM (inactive),CCN(CC)C(=O)CCCc1c[nH]c2ccccc12
6,> 35 µM (inactive),CCN(CC)c1ccc(C=NCCc2ccc(S(N)(=O)=O)cc2)cc1
7,> 35 µM (inactive),COc1cccc(CNC(=O)CN2C(=O)COc3ccc(S(=O)(=O)N4CCCCCC4)cc32)c1
8,> 35 µM (inactive),Cc1cc(NC(=O)CN(C)C)c([N+](=O)[O-])cc1C
9,> 35 µM (inactive),O=C(CN(c1ccc(Br)cc1)S(=O)(=O)c1ccc(Cl)c([N+](=O)[O-])c1)NCCc1ccccc1
10,> 35 µM (inactive),COc1ccccc1CNC(=O)COc1ccc([N+](=O)[O-])cc1
11,> 35 µM (inactive),CSc1ccc(CCNC(=O)CCc2nnc3ccc(NCCCN4CCCC4=O)nn23)cc1
12,> 35 µM (inactive),COc1cc(/C=C/C(=O)c2ccc([N+](=O)[O-])o2)ccc1O
13,> 35 µM (inactive),Cc1ccc(S(=O)(=O)CC#CCOC(=O)c2ccc([N+](=O)[O-])cc2)cc1
14,> 35 µM (inactive),O=C1C(=O)N(Cc2ccco2)C(c2cccs2)/C1=C(\O)c1cccc([N+](=O)[O-])c1 (stereo not drawn)
15,> 35 µM (inactive),CCOC(=O)C[C@H]1c2ccccc2S(=O)(=O)N1Cc1cccc(C(F)(F)F)c1
16,> 35 µM (inactive),O=C(Cc1cn2ccsc2n1)Nc1cccc2cnccc12
17,> 35 µM (inactive),Cc1nc(SCc2nc3c([N+](=O)[O-])cccc3[nH]2)c2oc3ccccc3c2n1
18,> 35 µM (inactive),O=C(CN1C(=O)c2ccccc2S1(=O)=O)NCCc1ccccc1
19,> 35 µM (inactive),Cc1ccc(-n2nc3c(=O)n(C(C)C(=O)NCc4ccccc4Cl)nc(C)c3c2C)cc1 (stereo not drawn)
20,> 35 µM (inactive),Cc1c(C)c(C)c(C(=O)CCc2cccc(NC(=O)CCC(=O)O)c2)c(C)c1C
21,> 35 µM (inactive),O=C(NNc1cc(Br)c(O)c(Br)c1)c1ccccc1
22,> 35 µM (inactive),CC(C)(C)C(=O)CNS(=O)(=O)c1ccc(S(=O)(=O)NC2CC2)cc1
23,> 35 µM (inactive),CCN(CC)S(=O)(=O)c1cc(C(=O)Nc2ccccc2[N+](=O)[O-])ccc1Cl

row,EC50,Compound
1,> 35 µM (inactive),CCSc1nc(NCCN(C)C)c2c3c(sc2n1)COC(C)(CC)C3 (stereo not drawn)
2,> 35 µM (inactive),CCOC(=O)CSc1nnc(Cc2ccc(OC)cc2)n1-c1ccccc1
3,> 35 µM (inactive),CCOC(=O)c1[nH]c2ccccc2c1NC(=S)Nc1cc(C)ccc1C
4,> 35 µM (inactive),CCn1c(Cl)c(C=O)s/c1=N\S(=O)(=O)c1ccccc1
5,15 µM,COc1ccc2c(c1)CCc1c(C(=O)Nc3cc(C)n(Cc4ccc(Cl)cc4)n3)noc1-2
6,> 35 µM (inactive),Cc1ncc([N+](=O)[O-])n1Cc1cccc2ccccc12
7,> 35 µM (inactive),COc1cc(Cl)c(C)cc1NC(=O)CSc1cc(Cl)ccc1Cl
8,> 35 µM (inactive),CN(C(=O)CSc1ccncc1)C1CCCN(Cc2ccccc2F)C1 (stereo not drawn)
9,> 35 µM (inactive),Cc1cccc(C)c1NC(=O)CS(=O)CC(=O)N1CCN(c2ccccc2)CC1 (stereo not drawn)
10,> 35 µM (inactive),CCOc1ccc(OCc2ccc(C(=O)NN=Cc3ccc[nH]3)cc2)cc1
11,> 35 µM (inactive),CCCCN1C(=O)C(NC(C)=O)c2cc(Br)ccc21 (stereo not drawn)
12,> 35 µM (inactive),O=C(Oc1cccc(/C=N/Nc2nc(Nc3ccccc3)nc(N3CCOCC3)n2)c1)c1ccco1
13,> 35 µM (inactive),CS(=O)(=O)c1ncc(Cl)c(C(=O)Nc2ccc(N3CCOCC3)cc2)n1
14,14.3 µM,COc1ccc(NC(=O)C(=O)N/N=C\c2ccc(CNC(=O)C(=O)Nc3ccc(C)c(C)c3)o2)c(OC)c1
15,> 35 µM (inactive),O=C(Nc1ccc2oc(-c3cccc(F)c3)nc2c1)c1ccccc1F
16,> 35 µM (inactive),COc1ccc(NC(=O)/C=C/C(=O)O)c([N+](=O)[O-])c1
17,> 35 µM (inactive),O=C(NC[C@H]1CCCO1)c1cccc2c1C(=O)c1ccc(-c3ccc(F)cc3OCc3ccccc3)cc1S2(=O)=O
18,> 35 µM (inactive),Cc1cc(C)c(S(=O)(=O)N2CCCCCC2)cc1Br
19,> 35 µM (inactive),COc1ccc(S(=O)(=O)NC2CCCC2)cc1C(N)=O
20,> 35 µM (inactive),Cc1cc(C)n2nc(SCC(=O)NC(=O)c3ccccc3)nc2n1
21,> 35 µM (inactive),O=C(O)CN1C(=O)C2C3CC(C2C1=O)C1C(c2ccccc2)c2sc(=O)[nH]c2SC31 (stereo not drawn)
22,> 35 µM (inactive),COc1ccc(S(=O)(=O)N2CC(O)CC2C(=O)OCc2nc3sc(C)c(C)c3c(=O)[nH]2)cc1 (stereo not drawn)
23,> 35 µM (inactive),CCN1C(=O)/C(=C2\Sc3ccccc3N2CC)OC1=S

row,EC50,Compound
1,> 35 µM (inactive),COc1ccc(CNS(=O)(=O)c2ccccc2Br)cc1
2,> 35 µM (inactive),Cc1[nH]c(=S)c(C#N)c(C)c1Cc1ccc(Cl)cc1Cl
3,> 35 µM (inactive),O=C(O)CCC(=NNC(=O)c1cccc(S(=O)(=O)N2CCCCC2)c1)c1ccccc1
4,> 35 µM (inactive),O=C(Nc1cc(Cl)ccc1N1CCOCC1)c1cccnc1
5,> 35 µM (inactive),O=C(Nc1ccc(S(=O)(=O)N2CCOCC2)cc1)c1ccco1
6,21.2 µM,COc1ccc(-c2nn(-c3ccccc3)cc2/C=C/C(=O)OCC(=O)Nc2ccccc2C#N)cc1
7,> 35 µM (inactive),O=[N+]([O-])c1ccc(S(=O)(=O)N/N=C/c2ccsc2)cc1
8,> 35 µM (inactive),COc1ccc(S(=O)(=O)Nc2c(NC3CCCCC3)c3ccccc3oc2=O)cc1OC
9,> 35 µM (inactive),FC(F)(F)c1cccc(Cc2noc(CN3CCCC(OCc4ccccn4)C3)n2)c1 (stereo not drawn)
10,> 35 µM (inactive),CCCc1nc2sc3c(c2c(=O)n1N)CCC3
11,> 35 µM (inactive),COc1cccc(-c2cc(C(F)(F)F)c(C#N)c(=O)[nH]2)c1
12,26.7 µM,COc1cc(NC(=O)c2ccc(C)cc2C)ccc1NC(=O)c1cc2ccccc2o1
13,> 35 µM (inactive),c1ccc(-c2sc3ccccc3c2-c2ccc(OCCN3CCOCC3)cc2)cc1
14,> 35 µM (inactive),COc1ccc(-c2ccc3c(c2)S(=O)(=O)c2cccc(C(=O)NCCOc4ccccc4)c2C3=O)cc1OC
15,> 35 µM (inactive),CCC(NC(=O)c1cccc(Cn2cc([N+](=O)[O-])cn2)c1)c1ccc(C(C)C)cc1 (stereo not drawn)
16,> 35 µM (inactive),CCOc1ccccc1OCCC(=O)N1CCN(S(=O)(=O)c2ccccc2[N+](=O)[O-])CC1
17,> 35 µM (inactive),COc1ccccc1N1CCN(C(=O)c2ccc(C(C)(C)C)cc2)CC1
18,7.22 µM,CCCc1ccc(OCc2ccc(C(=O)N/N=C/c3cccc([N+](=O)[O-])c3)o2)c(OC)c1
19,> 35 µM (inactive),CSc1cccc(NS(=O)(=O)c2cn(C)cn2)c1
20,> 35 µM (inactive),Cc1cccc(NC(=O)CSc2nnc(CNC(=O)c3ccc(S(=O)(=O)N(C)C)cc3)n2-c2ccc(F)cc2)c1
21,15.2 µM,COC(=O)c1ccc2c(c1)C(C)(C)C(/C=C/c1ccc(O)cc1)=[N+]2C
22,> 35 µM (inactive),COc1ccccc1N1CCN(S(=O)(=O)CCNC(=O)c2cc(OC)c(OC)c(OC)c2)CC1
